“And” between values parts separate entries of the source, which are not always exact repeats. Equal entries are not always repeated.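 Compound exposure: 48 hours, 5 concentrations, 96-well plates. GI50 marks 50% less growth. Definition used: TGI = concentration required for complete inhibition of growth.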
Key:
Test in all cases: NCI-60 cell line screen, 48 h
[1] = tested on: UACC-62 melanoma
[2] = tested on: IGROV1 ovarian
[3] = tested on: KM12 colon
[4] = tested on: UACC-257 melanoma
[5] = tested on: CAKI-1 renal
[6] = tested on: SK-MEL-5 melanoma
[7] = tested on: K-562 leukemia
[8] = tested on: EKVX NSCLC
[9] = tested on: A498 renal
[10] = tested on: RXF 393 renal

SMILES | TGI [1] | TGI [2] | TGI [3] | TGI [4] | TGI [5] | TGI [6] | TGI [7] | TGI [8] | TGI [9] | TGI [10] | GI50 [1] | GI50 [2] | GI50 [3] | GI50 [4] | GI50 [5] | GI50 [6] | GI50 [7] | GI50 [8] | GI50 [9] | GI50 [10]
CC(C)(Cc1ccccc1)N1C(=O)N1C(C)(C)Cc1ccccc1 | > 100 µM | > 100 µM | > 100 µM | > 100 µM | > 100 µM | 43.4 µM | > 100 µM | > 100 µM | > 100 µM | 48.3 µM |  |  |  |  |  |  |  |  |  | 
COC(=O)[C@@H]1C=C[C@H](NC(C)=O)C1 | > 100 µM | > 100 µM | > 100 µM | > 100 µM | > 100 µM | > 100 µM | > 100 µM |  | > 100 µM | > 100 µM |  |  |  |  |  |  |  |  |  | 
O=c1oc2cccnc2n1CCCCN1CCN(c2ccccc2)CC1 |  | > 100 µM |  | > 100 µM | > 100 µM | > 100 µM | > 100 µM | > 100 µM | > 100 µM | > 100 µM |  |  |  |  |  |  |  |  |  | 
O=[N+]([O-])c1cc(F)ccc1Sc1ccccc1 | > 10 µM | > 10 µM | > 10 µM | > 10 µM | > 10 µM | > 10 µM | > 10 µM | > 10 µM | > 10 µM | > 10 µM |  |  |  |  |  |  |  |  |  | 
CC(=O)NC(=O)NC1=NCCC(=O)N1CCc1c[nH]c2ccccc12 | > 100 µM | > 100 µM | > 100 µM | > 100 µM | > 100 µM | > 100 µM | > 100 µM | > 100 µM | > 100 µM | > 100 µM |  |  |  |  |  |  |  |  |  | 
C=CCc1ccccc1C1CC2(C(=O)OC)OC1C(C(=O)OC)=C2C(=O)OC (stereo not given) | > 10 µM | > 10 µM | > 10 µM | > 10 µM | > 10 µM | > 10 µM | > 10 µM | > 10 µM | > 10 µM | > 10 µM |  |  |  |  |  |  |  |  |  | 
O=c1c2cc(Br)ccc2ncn1COCc1ccccc1 | > 100 µM | > 100 µM | > 100 µM | > 100 µM |  | > 100 µM | > 100 µM | > 100 µM | > 100 µM | > 100 µM |  |  |  |  |  |  |  |  |  | 
CC(=O)O[C@H]1CCC2[C@@H]3CCC4NC(=O)C(C#N)C[C@]4(C)C3CC[C@@]21C (stereo not given in full) | > 10 µM | > 10 µM | > 10 µM | > 10 µM | > 10 µM | > 10 µM | > 10 µM | > 10 µM | > 10 µM | > 10 µM |  |  |  |  |  |  |  |  |  | 
N#C/C(=C1/c2cc([N+](=O)[O-])ccc2-c2c1cc([N+](=O)[O-])cc2[N+](=O)[O-])N1CCCCC1 | > 100 µM | > 100 µM | > 100 µM | > 100 µM | > 100 µM | > 100 µM | > 100 µM | > 100 µM | > 100 µM | > 100 µM |  |  |  |  |  |  |  |  |  | 
O=c1[nH]c2cc([N+](=O)[O-])c(Nc3c4ccccc4nc4ccccc34)c([N+](=O)[O-])c2[nH]1 | 4.53 µM | 3.04 µM | 10.9 µM | 11.2 µM | 7.96 µM | 7.65 µM | 6.96 µM | 7.47 µM | 6.86 µM | 10.1 µM |  |  |  |  |  |  |  |  |  | 
O=NN1CCCS1(=O)=O | > 100 µM | > 100 µM | > 100 µM | > 100 µM | > 100 µM | > 100 µM | > 100 µM | > 100 µM | > 100 µM | > 100 µM |  |  |  |  |  |  |  |  |  | 
CCC1(OC(=O)CN)C(=O)OCc2c1cc1n(c2=O)Cc2cc3cc4c(cc3nc2-1)OCO4 (stereo not given) | < 0.01 µM | 1.55 µM and 0.527 µM |  | 0.281 µM and 0.603 µM | 0.171 µM | 0.0759 µM | > 100 µM | 0.495 µM | 0.0787 µM and 0.241 µM | 0.119 µM | < 0.01 µM | 0.0975 µM and 0.0367 µM | 0.126 µM and 0.187 µM | < 0.01 µM and 0.0484 µM | < 0.01 µM | < 0.01 µM | 0.0512 µM and 0.0225 µM | 0.0106 µM | 0.0161 µM and 0.038 µM | 0.0158 µM
COc1ccc(OC)c(C[P+](c2ccccc2)(c2ccccc2)c2ccccc2)c1 | 12.8 µM | 21.7 µM | 14.1 µM | 14.4 µM | 56 µM | 3.32 µM | 5.91 µM | > 94.6 µM | 23.5 µM | 25.8 µM |  |  |  |  |  |  |  |  |  | 
COc1ccc(C2SCC(=O)N2NC(=O)C(C)Oc2ccc(Cl)cc2Cl)cc1 (stereo not given) | > 100 µM | > 100 µM | > 100 µM | > 100 µM | 47.3 µM | > 100 µM | 89.8 µM | > 100 µM | 76.4 µM | 59.2 µM |  |  |  |  |  |  |  |  |  | 
Cc1ccc(NC2=N/C(=C/c3ccco3)C(Cl)=N2)cc1 | > 100 µM | > 100 µM | > 100 µM | > 100 µM | > 100 µM | > 100 µM | > 100 µM | > 100 µM | > 100 µM | > 100 µM |  |  |  |  |  |  |  |  |  | 
C=CC(OC(C)=O)c1ccc(OC(C)=O)cc1 (stereo not given) | 28.1 µM | 29.5 µM | 18.6 µM | 16 µM | 10 µM | 28.7 µM | > 100 µM | 41.4 µM | 25.3 µM | 28.1 µM |  |  |  |  |  |  |  |  |  | 
O=C1/C(=C/c2ccc(O)cc2)CCC1CNc1ccccc1 (stereo not given) | 28.7 µM | 25.3 µM | 22.7 µM | 30.6 µM | 26.5 µM | 30.6 µM | 4 µM | 33.6 µM | 31.9 µM | 35.9 µM |  |  |  |  |  |  |  |  |  | 
NC1c2c(Cl)sc(Cl)c2C(=O)C1O (stereo not given) | 43.7 µM | > 100 µM | > 100 µM | > 100 µM | 47.4 µM | 86.6 µM | > 100 µM | 57.6 µM | > 100 µM | 25.7 µM |  |  |  |  |  |  |  |  |  | 
COC(=O)C1CC23C=CCN4CC(C2C)C2(c5ccccc5NC12)C43 (stereo not given) | > 100 µM | > 100 µM | > 100 µM | > 100 µM | > 100 µM | > 100 µM | > 100 µM | > 100 µM | > 100 µM | > 100 µM |  |  |  |  |  |  |  |  |  | 
Nn1c(Sc2nc3ccccc3c(=O)n2N)nc2ccccc2c1=O | 25.6 µM | 23.3 µM | > 62.3 µM | 38.1 µM | 20.3 µM | 11.5 µM | > 100 µM | 38.9 µM | 36.5 µM | 25.1 µM |  |  |  |  |  |  |  |  |  | 
